pIC50: −log10 of the molar value. Where a name gives a salt, the structure may show the parent alone.
Key:
[1] = tested on: substance P-induced contraction of the isolated guinea-pig ileum; assay: Inhibitory effect on substance P-induced contraction of the isolated guinea-pig ileum; format: cell-based; conditions: Cavia porcellus, 5 min, substance P 0.01 μM, 5 min incubation, 30° C.
Method: (§1) Inhibitory effect on substance P and histamine-induced contraction of the isolated guinea-pig ileum. Test compounds were dissolved and diluted in 100% dimethylsulfoxide (DMSO). Substance P (SP, Peninsula Laboratories or Peptide Institute) and histamine dihydrochloride (Wako Pure Chemicals) were dissolved and diluted in distilled water. […] Male Hartley guinea-pigs (300-400 g) were killed by a blow to the head. The ileum was removed and the ileal strips (15-20 mm) were suspended under 0.5 g tension in a 20 ml organ bath containing a modified Tyrode solution maintained at 30° C. and aerated with 95% O2 +5% CO2. Responses were recorded isotonically. Tissues were equilibrated for 15 min, and then the constant responses to histamine (1 μM) were obtained. Then substance P (0.01 μM) or histamine (0.1 μM)-induced contraction was obtained after 5 min incubation with or without the test compounds. Contractile responses to substance P or histamine with the test compound were expressed as a percentage of those without the test compound. IC50 was the concentration of the test compound required to prevent 50% of the contractile response elicited by substance P or histamine. Compound Nos. of the tested compounds correspond to the numbers of Preparation Examples.

[2] = tested on: histamine-induced contraction of the isolated guinea-pig ileum; assay: Inhibitory effect on histamine-induced contraction of the isolated guinea-pig ileum; format: cell-based; conditions: Cavia porcellus, 5 min, histamine 0.1 μM, 5 min incubation, 30° C.
Method: as §1

Row | SMILES | pIC50 [1] | pIC50 [2]
1 | CN(CCCN(C)c1nc2ccccc2n1Cc1ccc(F)cc1)C(=O)NCc1cc(C(F)(F)F)cc(C(F)(F)F)c1 [Compound 1, N-methyl-N-(1-(4-fluorobenzyl)benzimidazol-2-yl)-N'-methyl-N'-(3,5-bis(trifluoromethyl)benzylaminocarbonyl)-1,3-propylenediamine hydrochloride] | 6.23 | 6.54
2 | CN(CCN(C)c1nc2ccccc2n1Cc1ccc(F)cc1)C(=O)NCc1cc(C(F)(F)F)cc(C(F)(F)F)c1 [Compound 2, N-methyl-N-(1-(4-fluorobenzyl)benzimidazol-2-yl)-N'-methyl-N'-(3,5-bis(trifluoromethyl)benzylaminocarbonyl)-1,2-ethylenediamine hydrochloride] | 5.55 | 5.96
3 | CN(CCCN(C)C(=O)NCc1cc(C(F)(F)F)cc(C(F)(F)F)c1)Cc1nc2ccccc2n1Cc1ccc(F)cc1 [Compound 3, N-methyl-N-(1-(4-fluorobenzyl)benzimidazol-2-yl)methyl-N'-methyl-N'-(3,5-bis(trifluoromethyl)benzylaminocarbonyl)-1,3-propylenediamine hydrochloride] | 5.85 | 6.80
4 | CN(CCN(C)C(=O)NCc1cc(C(F)(F)F)cc(C(F)(F)F)c1)Cc1nc2ccccc2n1Cc1ccc(F)cc1 [Compound 4, N-methyl-N-(1-(4-fluorobenzyl)benzimidazol-2-yl)methyl-N'-methyl-N'-(3,5-bis(trifluoromethyl)benzylaminocarbonyl)-1,2-ethylenediamine hydrochloride] | 6.02 | 7.00
5 | COc1ccccc1CNC(=O)N(C)CCCN(C)c1nc2ccccc2n1Cc1ccc(F)cc1 [Compound 5] | 5.52 | 7.54
6 | CN(CCCN(C)c1nc2ccccc2n1Cc1ccc(F)cc1)C(=O)NCc1ccccc1Cl [Compound 6] | 5.57 | 7.60
7 | COc1cc(CNC(=O)N(C)CCCN(C)c2nc3ccccc3n2Cc2ccc(F)cc2)cc(OC)c1OC [Compound 7] | 5.40 | 7.00
8 | COc1cc(CNC(=O)N(C)CCCN(C)c2nc3ccccc3n2Cc2ccc(F)cc2)cc(OC)c1 [Compound 8] | 5.52 | 6.55
9 | CN(CCCN(C)c1nc2ccccc2n1Cc1ccc(F)cc1)C(=O)NCc1ccc(F)cc1 [Compound 9] | 5.57 | 7.44
10 | COc1cccc(CNC(=O)N(C)CCCN(C)c2nc3ccccc3n2Cc2ccc(F)cc2)c1 [Compound 10] | 5.55 | 7.39
11 | CN(CCCN(C)c1nc2ccccc2n1Cc1ccc(F)cc1)C(=O)NCc1cc(Cl)cc(Cl)c1 [Compound 11] | 5.82 | 6.70
12 | COc1ccc(CNC(=O)N(C)CCCN(C)c2nc3ccccc3n2Cc2ccc(F)cc2)cc1 [Compound 12] | 5.39 | 7.36
13 | Cc1ccc(CNC(=O)N(C)CCCN(C)c2nc3ccccc3n2Cc2ccc(F)cc2)cc1 [Compound 13] | 5.55 | 7.55

— patent US6114369A, “Benzimidazole compound” (Nissan Chemical Industries, Ltd., priority 1997, dated 2000)
